From article PMC7307906, “Macrocyclic Modalities Combining Peptide Epitopes and Natural Product Fragments” (Journal of the American Chemical Society, 2020) come the findings set out here.

pEC50, pIC50: −log10 of the molar value. Some results are limits rather than exact numbers.

A word on the pIC50: it is −log10 of the IC50, conventionally taken in molar units. Broadly, the pEC50 is −log10 of the EC50, conventionally taken in molar units.

Assay [1] concerns the target T1, human MC1R (Homo sapiens, UniProt Q01726).
T1 construct: expressed in transfected cells
As to the kind of experiment: Melanocortin receptor radioligand binding (SPA, [125I]-NDP-α-MSH displacement), MC1R. To be noted: competitive binding, mean (± SEM) of at least three independent experiments, read-out: IC50 hMC1R binding.

The target of a further assay is hMC1−5R. As to the kind of experiment: Melanocortin receptor radioligand binding, result stated for all receptors together. Set-up: species or system human. An excerpt:
Example concentration response curves for selected PepNats in MC1R, MC3R, MC4R, MC5R radioligand binding assays and MC1R, MC3R, MC4R cAMP assays. Responses were normalized to reference agonist NDP -α-MSH and presented as % effect of control, with full competition in binding defined as -100% and full agonism in cAMP assays defined as […]
binding assay. Threshold to define a compound as active was set to -30% in binding assays and 20% in cAMP assays respectively. Data are from at least three independent experiments and error bars represent ± Standard Error of the […]
% s p e c ific b in d in g o f
(1 picture or pasted object on this page, not shown here) […]
expression, MC1R and MC4R transfected cells were treated with 0.1 ng /mL and MC3R transfected cells with 10 ng/mL doxycyclin, for 24 h before assay.
Melanocortin receptor radioligand binding and cAMP assays.
Binding and cAMP assays were performed as described by Durek et al.7 “A 384-well format scintillation proximity assay (SPA) was used to identify compounds that show competitive binding to the human Melanocortin receptor 1,3,4 or 5 ligand binding domain (LBD). […] The inhibition of the scintillation signal by displacement of [ 125I]- NDP-α-MSH by test compounds were detected by a 1450 MicroBeta Trilux scintillation counter […]
Plates were incubated for 16-23 h in the dark at room temperature before reading on a 1450 […]
Measurements of cAMP production were performed using LANCE® cAMP kits (PerkinElmer) in a total assay volume of 12 µl/well. […] The reaction was stopped with detection buffer containing 10 µM Biotin-cAMP and 15 µM LANCE Eu-W8044 labelled streptavidin (PerkinElmer LANCE cAMP kit). cAMP production was detected by homogenous time resolved fluorescence (HTRF) (λex = 340 nm, λem = 665 and 615 nm) using a Pherastar (BMG Labtech).
PepNats, literature compounds and references were tested in ten-point concentration response (½ log serial dilution) with 100, 10 or 1 µM as final start concentrations. Raw data output was analyzed in Screener software (Genedata AG) and pEC50 and pIC50 values calculated using a four-

In assay [2] the target is T2, human MC4R (Homo sapiens, UniProt P32245).
T2 construct: expressed in transfected cells
Description: cAMP assay (LANCE) in T-Rex-293 cells expressing MC4R. The class given is cell-based. To be noted: cAMP assay; mean (± SEM) of at least three independent experiments; read-out: EC50 hMC4R cAMP. Background: Cyclic AMP is a second messenger, typically raised through Gs and lowered through Gi signalling.

In assay [3] the target is T3, human MC3R (Homo sapiens, UniProt P41968).
T3 construct: expressed in transfected cells
Description: Melanocortin receptor radioligand binding (SPA, [125I]-NDP-α-MSH displacement), MC3R. To be noted: competitive binding, mean (± SEM) of at least three independent experiments, read-out: IC50 hMC3R binding.

Assay [4] addresses T2, human MC4R. As to the kind of experiment: Melanocortin receptor radioligand binding (SPA, [125I]-NDP-α-MSH displacement), MC4R. To be noted: competitive binding, mean (± SEM) of at least three independent experiments, read-out: IC50 hMC4R binding.
The target in assay [5] is T3, human MC3R. Description: cAMP assay (LANCE) in T-Rex-293 cells expressing MC3R. The class given is cell-based. To be noted: cAMP assay; mean (± SEM) of at least three independent experiments; read-out: EC50 hMC3R cAMP.
The target of assay [6] is T1, human MC1R. As to the kind of experiment: cAMP assay (LANCE) in T-Rex-293 cells expressing MC1R. The class given is cell-based.

T1 sequence (Q01726 whole entry): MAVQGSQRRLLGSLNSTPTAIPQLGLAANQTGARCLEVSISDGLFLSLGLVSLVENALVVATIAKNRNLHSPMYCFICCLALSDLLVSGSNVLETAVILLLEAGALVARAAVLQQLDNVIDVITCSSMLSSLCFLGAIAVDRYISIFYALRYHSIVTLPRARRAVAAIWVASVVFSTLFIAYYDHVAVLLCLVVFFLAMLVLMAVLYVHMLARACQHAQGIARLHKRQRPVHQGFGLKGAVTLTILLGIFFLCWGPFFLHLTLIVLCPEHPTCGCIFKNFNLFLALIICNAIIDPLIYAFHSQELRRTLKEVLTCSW
T3 sequence (P41968 whole entry): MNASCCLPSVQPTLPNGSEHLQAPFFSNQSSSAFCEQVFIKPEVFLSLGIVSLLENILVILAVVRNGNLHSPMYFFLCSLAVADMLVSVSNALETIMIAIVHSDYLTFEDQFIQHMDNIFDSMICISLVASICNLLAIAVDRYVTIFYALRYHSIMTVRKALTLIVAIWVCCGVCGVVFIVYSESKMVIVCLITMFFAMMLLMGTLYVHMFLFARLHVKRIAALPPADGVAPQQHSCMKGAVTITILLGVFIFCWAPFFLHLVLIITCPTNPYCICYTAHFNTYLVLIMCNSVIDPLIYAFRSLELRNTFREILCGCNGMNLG
T2 sequence (P32245 whole entry): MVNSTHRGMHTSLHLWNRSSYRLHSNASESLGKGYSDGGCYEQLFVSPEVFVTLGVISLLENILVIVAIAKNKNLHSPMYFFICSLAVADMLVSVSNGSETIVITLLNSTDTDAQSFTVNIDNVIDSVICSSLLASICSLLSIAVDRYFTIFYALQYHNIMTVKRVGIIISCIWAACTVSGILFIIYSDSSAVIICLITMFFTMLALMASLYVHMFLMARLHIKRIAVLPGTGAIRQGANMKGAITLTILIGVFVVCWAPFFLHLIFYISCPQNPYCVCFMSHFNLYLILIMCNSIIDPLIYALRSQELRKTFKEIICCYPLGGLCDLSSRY

For the compound `CN1C(=O)[C@H]2N[C@@H](c3ccc(cc3)C(=O)NCCCC[C@@H](C(=O)N[C@@H](Cc3ccc(O)cc3)C(N)=O)NC(=O)[C@H](CC(N)=O)NC(=O)[C@@H](Cc3ccccc3)NC(=O)[C@@H](Cc3ccccc3)NC(=O)[C@H](CCCNC(=N)N)NC(=O)[C@@H]1Cc1ccccc1)[C@H]1C(=O)N(c3ccccc3)C(=O)[C@H]12` [K1-minor, [II-FRffNK ]Y], the negative logarithm of the IC50 (pIC50) is less than 4.00 on human MC1R [1]; less than 4.00 at hMC1−5R (competitive binding, one bound printed for all receptors); less than 4.00 at human MC3R [3]; less than 4.00 on human MC4R [4]. In addition, the “binding to the MC receptors (in words)” value in the assay with hMC1−5R (human MC receptors, radioligand binding) was “did not bind to any of the receptors”. Also, the pEC50 on human MC4R [2] was less than 4.00; on human MC3R [5], less than 4.00; at human MC1R [6] (cAMP assay, mean (± SEM) of at least three independent experiments, read-out: EC50 hMC1R cAMP), less than 4.00. Also, the “% Effect hMC1R cAMP at 100 µM” value on human MC1R [6] (% effect at 100 µM, compounds not reaching an upper plateau (§)) turned out to be 30%.
